Assay results taken from patent US7511033B2, “Dihydro-benzo[B][1,4]diazepin-2-one sulfonamide derivatives” (Hoffmann-La Roche Inc., priority 2007, dated 2009).

Experiments:
[1] = biological target: T1, rat mGlu2 receptor (Rattus norvegicus, UniProt P31421); test: [3H]-LY354740 binding on mGlu2 transfected CHO cell membranes; settings: inhibition of 10 nM [3H]-LY354740 binding, room temperature, 1 hour
T1 construct: expressed in transfected cells; membranes prepared from them
Text: [^3H]-LY354740 Binding on mGlu2 Transfected CHO Cell Membranes. Transfection and Cell Culture
cDNA encoding the rat mGlu2 receptor protein in pBluescript II was subcloned into the eukaryotic expression vector pcDNA I-amp from Invitrogen Ltd (Paisley, UK). This vector construct (pcD1 mGR2) was co-transfected with a psvNeo plasmid encoding the gene for neomycin resistance, into CHO cells by a modified calcium phosphate method described by Chen & Okayama (1988). The cells were maintained in Dulbecco's Modified Eagle medium with reduced L-glutamine (1 mM final concentration), 36 mg/L L-Proline and 10% dialysed foetal calf serum from Gibco-Invitrogen; the medium was supplemented with 500 microM α-methyl-4-carboxyphenylglycine (MCPG). Selection was made in the presence of G-418 (300 ug/ml final concentration). Clones were identified by reverse transcription of 5 μg total RNA, followed by PCR using mGlu2 receptor specific primers 5′-[…]-3′ and 5′-[…]-3′ in 60 mM Tris HCl (pH 10), 15 mM (NH4)2SO4, 2 mM MgCl2, 25 units/ml Taq Polymerase with 30 cycles annealing at 60° C. for 1 min., extension at 72° C. for 30 s, and 1 min. 95° C. denaturation.
Cells, cultured as above, were harvested and washed three times with cold PBS and frozen at −80° C. The pellet was resuspended in cold 20 mM HEPES-NaOH buffer containing 10 mM EDTA (pH 7.4), and homogenized with a polytron (Kinematica, AG, Littau, Switzerland) for 10 s at 10 000 rpm. After centrifugation for 30 min. at 4° C., the pellet was washed once with cold 20 mM HEPES-NaOH buffer containing 0.1 mM EDTA, (pH 7.4). After a second centrifugation for 30 min. at 4° C. the pellet was resuspended in cold 20 mM HEPES-NaOH buffer containing 0.1 mM EDTA, (pH 7.4). Protein content was measured using the Micro BCA method from Pierce-Perbio (Rockford, Ill., USA) using bovine serum albumin as standard.
After thawing, the membranes were resuspended in cold 50 mM Tris-HCl buffer containing 2 mM MgCl2 (pH 7.4) (binding buffer). The final concentration of the membranes in the assays was 25 μg protein/ml. Inhibition experiments were performed with membranes incubated with 10 nM [^3H]-LY354740 at room temperature, for 1 hour, in presence of various concentrations of the compound to be tested. Following the incubations, membranes were filtered onto Whatmann GF/B glass fiber filters or onto GF/B Unifilter plates and washed 5 times with cold binding buffer. Non specific binding was measured in the presence of 10 μM (2S,2′R,3′R)-2-(2′3′-Dicarboxycyclopropyl)glycine (DCG IV from Tocris, Ellisville, Mo. USA). After transfer of the filters into plastic vials containing 10 ml of Ultima-gold scintillation fluid from Perkin-Elmer (Boston, Mass., USA), the radioactivity was measured by liquid scintillation in a Tri-Carb 2500 TR counter (Packard, Zürich, Switzerland). For 96-Unifilter plates the radioactivity was measured after addition of Microscint 40 scintillation fluid (Perkin Elmer, Boston Mass.) using a TopCount NXT (Packard)
The inhibition curves were fitted with a four parameter logistic equation giving IC50 values, and Hill coefficients.

T1 sequence (P31421 19-872): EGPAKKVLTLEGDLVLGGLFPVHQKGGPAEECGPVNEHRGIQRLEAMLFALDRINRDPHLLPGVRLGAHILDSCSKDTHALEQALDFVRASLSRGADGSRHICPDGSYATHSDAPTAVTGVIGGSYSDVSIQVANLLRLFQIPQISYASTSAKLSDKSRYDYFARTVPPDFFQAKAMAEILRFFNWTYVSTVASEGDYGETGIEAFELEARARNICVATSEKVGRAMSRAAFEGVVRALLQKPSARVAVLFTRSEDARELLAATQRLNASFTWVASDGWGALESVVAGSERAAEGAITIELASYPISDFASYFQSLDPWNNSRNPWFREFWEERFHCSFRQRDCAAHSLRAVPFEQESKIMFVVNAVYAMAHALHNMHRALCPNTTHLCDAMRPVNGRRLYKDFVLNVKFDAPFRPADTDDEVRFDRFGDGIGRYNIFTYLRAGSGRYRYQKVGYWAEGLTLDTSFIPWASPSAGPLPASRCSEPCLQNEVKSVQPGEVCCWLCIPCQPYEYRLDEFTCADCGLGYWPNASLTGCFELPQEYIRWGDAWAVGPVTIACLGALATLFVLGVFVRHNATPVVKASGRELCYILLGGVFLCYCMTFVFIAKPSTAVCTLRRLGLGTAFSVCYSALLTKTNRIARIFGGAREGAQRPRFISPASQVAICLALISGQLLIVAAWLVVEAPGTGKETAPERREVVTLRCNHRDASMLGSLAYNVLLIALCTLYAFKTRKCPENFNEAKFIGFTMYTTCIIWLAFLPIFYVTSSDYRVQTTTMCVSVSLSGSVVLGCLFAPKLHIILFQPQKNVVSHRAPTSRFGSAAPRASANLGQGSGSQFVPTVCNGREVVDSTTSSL

Row | Compound | Ki [1] [nM] | melting point
1 | Cc1cc2c(cc1C(F)(F)F)NC(=O)CC(c1cccc(-c3ccc(S(N)(=O)=O)cc3)c1)=N2 [Example 1, 3′-(8-Methyl-4-oxo-7-trifluoromethyl-4,5-dihydro-3H-benzo[b][1,4]diazepin-2-yl)-biphenyl-4-sulfonic acid amide] | 1.9 | > 260 °C
2 | Cc1cc2c(cc1C(F)(F)F)NC(=O)CC(c1cccc(-c3cccc(S(=O)(=O)NC(C)(C)C)c3)c1)=N2 [Example 2, 3′-(8-Methyl-4-oxo-7-trifluoromethyl-4,5-dihydro-3H-benzo[b][1,4]diazepin-2-yl)-biphenyl-3-sulfonic acid tert-butylamide] | 20 | 133 °C (dec.)
3 | Cc1cc2c(cc1C(F)(F)F)NC(=O)CC(c1cccc(-c3cccc(S(N)(=O)=O)c3)c1)=N2 [Example 3, 3′-(8-Methyl-4-oxo-7-trifluoromethyl-4,5-dihydro-3H-benzo[b][1,4]diazepin-2-yl)-biphenyl-3-sulfonic acid amide] | 0.9 | 235 to 239 °C (dec.)
4 | CC(C)(C)NS(=O)(=O)c1cccc(-c2cccc(C3=Nc4ccc(C(F)(F)F)cc4NC(=O)C3)c2)c1 [Example 4, 3′-(4-Oxo-7-trifluoromethyl-4,5-dihydro-3H-benzo[b][1,4]diazepin-2-yl)-biphenyl-3-sulfonic acid tert-butylamide] | 12 | 179 to 181 °C
5 | CC(C)(C)NS(=O)(=O)c1ccc(-c2cccc(C3=Nc4ccc(C(F)(F)F)cc4NC(=O)C3)c2)cc1 [Example 5, 3′-(4-Oxo-7-trifluoromethyl-4,5-dihydro-3H-benzo[b][1,4]diazepin-2-yl)-biphenyl-4-sulfonic acid tert-butylamide] | 16 | 229 to 233 °C
6 | CCOc1cc2c(cc1C(F)(F)F)NC(=O)CC(c1cccc(-c3cccc(S(=O)(=O)NC(C)(C)C)c3)c1)=N2 [Example 6, 3′-(8-Ethoxy-4-oxo-7-trifluoromethyl-4,5-dihydro-3H-benzo[b][1,4]diazepin-2-yl)-biphenyl-3-sulfonic acid tert-butylamide] | 9 | 215 to 218 °C
7 | CCOc1cc2c(cc1C(F)(F)F)NC(=O)CC(c1cccc(-c3ccc(S(=O)(=O)NC(C)(C)C)cc3)c1)=N2 [Example 7, 3′-(8-Ethoxy-4-oxo-7-trifluoromethyl-4,5-dihydro-3H-benzo[b][1,4]diazepin-2-yl)-biphenyl-4-sulfonic acid tert-butylamide] | 30 | > 260 °C
8 | NS(=O)(=O)c1cccc(-c2cccc(C3=Nc4ccc(C(F)(F)F)cc4NC(=O)C3)c2)c1 [Example 8, 3′-(4-Oxo-7-trifluoromethyl-4,5-dihydro-3H-benzo[b][1,4]diazepin-2-yl)-biphenyl-3-sulfonic acid amide] | 1.7 | 170 °C (dec.)
9 | NS(=O)(=O)c1ccc(-c2cccc(C3=Nc4ccc(C(F)(F)F)cc4NC(=O)C3)c2)cc1 [Example 9, 3′-(4-Oxo-7-trifluoromethyl-4,5-dihydro-3H-benzo[b][1,4]diazepin-2-yl)-biphenyl-4-sulfonic acid amide] | 3 | 195 to 210 °C (dec.)
10 | CCOc1cc2c(cc1C(F)(F)F)NC(=O)CC(c1cccc(-c3cccc(S(N)(=O)=O)c3)c1)=N2 [Example 10, 3′-(8-Ethoxy-4-oxo-7-trifluoromethyl-4,5-dihydro-3H-benzo[b][1,4]diazepin-2-yl)-biphenyl-3-sulfonic acid amide] | 2.7 | 210 to 220 °C (dec.)
11 | CCOc1cc2c(cc1C(F)(F)F)NC(=O)CC(c1cccc(-c3ccc(S(N)(=O)=O)cc3)c1)=N2 [Example 11, 3′-(8-Ethoxy-4-oxo-7-trifluoromethyl-4,5-dihydro-3H-benzo[b][1,4]diazepin-2-yl)-biphenyl-4-sulfonic acid amide] | 3 | 245 to 250 °C (dec.)
12 | CN(C)c1cc2c(cc1C(F)(F)F)NC(=O)CC(c1cccc(-c3ccc(S(N)(=O)=O)cc3)c1)=N2 [Example 12, 3′-(8-Dimethylamino-4-oxo-7-trifluoromethyl-4,5-dihydro-3H-benzo[b][1,4]diazepin-2-yl)-biphenyl-4-sulfonic acid amide] | 3.1 | 246 °C (dec.)
13 | CN(C)c1cc2c(cc1C(F)(F)F)NC(=O)CC(c1cccc(-c3cccc(S(N)(=O)=O)c3)c1)=N2 [Example 13, 3′-(8-Dimethylamino-4-oxo-7-trifluoromethyl-4,5-dihydro-3H-benzo[b][1,4]diazepin-2-yl)-biphenyl-3-sulfonic acid amide] | 1.2 | 258 °C (dec.)
14 | CC(C)CN(C)c1cc2c(cc1C(F)(F)F)NC(=O)CC(c1cccc(-c3ccc(S(N)(=O)=O)cc3)c1)=N2 [Example 14, 3′-[8-(Isobutyl-methyl-amino)-4-oxo-7-trifluoromethyl-4,5-dihydro-3H-benzo[b][1,4]diazepin-2-yl]-biphenyl-4-sulfonic acid amide] | 17 | 236 °C (dec.)
15 | CC(C)CN(C)c1cc2c(cc1C(F)(F)F)NC(=O)CC(c1cccc(-c3cccc(S(N)(=O)=O)c3)c1)=N2 [Example 15, 3′-[8-(Isobutyl-methyl-amino)-4-oxo-7-trifluoromethyl-4,5-dihydro-3H-benzo[b][1,4]diazepin-2-yl]-biphenyl-3-sulfonic acid amide] | 8.7 | 232 °C (dec.)
16 | NS(=O)(=O)c1ccc(-c2cccc(C3=Nc4ccc(-c5ccccc5F)cc4NC(=O)C3)c2)cc1 [Example 16, 3′-[7-(2-Fluoro-phenyl)-4-oxo-4,5-dihydro-3H-benzo[b][1,4]diazepin-2-yl]-biphenyl-4-sulfonic acid amide] | 5.6 | 240 to 250 °C (dec.)
17 | NS(=O)(=O)c1cccc(-c2cccc(C3=Nc4ccc(-c5ccccc5F)cc4NC(=O)C3)c2)c1 [Example 17, 3′-[7-(2-Fluoro-phenyl)-4-oxo-4,5-dihydro-3H-benzo[b][1,4]diazepin-2-yl]-biphenyl-3-sulfonic acid amide] | 2.2 | 230 to 232 °C
18 | CC(C)CNc1cc2c(cc1C(F)(F)F)NC(=O)CC(c1cccc(-c3ccc(S(N)(=O)=O)cc3)c1)=N2 [Example 18, 3′-(8-Isobutylamino-4-oxo-7-trifluoromethyl-4,5-dihydro-3H-benzo[b][1,4]diazepin-2-yl)-biphenyl-4-sulfonic acid amide] | 21 | 
19 | CC(C)CNc1cc2c(cc1C(F)(F)F)NC(=O)CC(c1cccc(-c3cccc(S(N)(=O)=O)c3)c1)=N2 [Example 19, 3′-(8-Isobutylamino-4-oxo-7-trifluoromethyl-4,5-dihydro-3H-benzo[b][1,4]diazepin-2-yl)-biphenyl-3-sulfonic acid amide] | 3.6 | 251 °C (dec.)
